Assays:
[1] = system: T1, SecYEG (HD-SecYEG; PD-SecYEG-CL); test: CL added before peptidisc reconstitution; SecA ATPase by Malachite green; SecA binding by clear-native PAGE; type: biochemical, Escherichia coli; details: 20:1 lipid to SecYEG molar ratio; with SecA; 1 mM ATP, 10 mM MgCl2, pH 8.8, 37°C; lipid activator
T1 construct: gene secY; read out with SecA; with Protein translocase subunit SecA

[2] = target: the molecule itself; test: native gel or EMSA; 5-13% native PAGE with Coomassie staining of the DDM-MsbA and peptidisc-MsbA preparations (DDC, DLW, DHW)

T1 sequence (P0AG96 whole entry): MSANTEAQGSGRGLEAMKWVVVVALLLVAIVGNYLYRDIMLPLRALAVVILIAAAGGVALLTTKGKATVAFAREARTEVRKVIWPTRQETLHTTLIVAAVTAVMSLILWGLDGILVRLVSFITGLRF
T1 sequence (P0AGA2 whole entry, further chain): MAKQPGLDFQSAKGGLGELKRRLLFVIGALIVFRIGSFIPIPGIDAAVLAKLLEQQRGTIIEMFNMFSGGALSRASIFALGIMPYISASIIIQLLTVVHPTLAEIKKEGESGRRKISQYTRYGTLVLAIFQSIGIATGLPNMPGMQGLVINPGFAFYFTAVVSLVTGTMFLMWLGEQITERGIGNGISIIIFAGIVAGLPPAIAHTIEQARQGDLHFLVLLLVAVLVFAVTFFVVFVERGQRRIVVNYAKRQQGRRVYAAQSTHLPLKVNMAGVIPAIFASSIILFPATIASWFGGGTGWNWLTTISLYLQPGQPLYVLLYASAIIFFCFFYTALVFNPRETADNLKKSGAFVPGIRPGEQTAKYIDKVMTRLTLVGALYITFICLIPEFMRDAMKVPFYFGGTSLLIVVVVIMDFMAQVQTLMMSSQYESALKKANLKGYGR
T1 sequence (P10408 whole entry, further chain): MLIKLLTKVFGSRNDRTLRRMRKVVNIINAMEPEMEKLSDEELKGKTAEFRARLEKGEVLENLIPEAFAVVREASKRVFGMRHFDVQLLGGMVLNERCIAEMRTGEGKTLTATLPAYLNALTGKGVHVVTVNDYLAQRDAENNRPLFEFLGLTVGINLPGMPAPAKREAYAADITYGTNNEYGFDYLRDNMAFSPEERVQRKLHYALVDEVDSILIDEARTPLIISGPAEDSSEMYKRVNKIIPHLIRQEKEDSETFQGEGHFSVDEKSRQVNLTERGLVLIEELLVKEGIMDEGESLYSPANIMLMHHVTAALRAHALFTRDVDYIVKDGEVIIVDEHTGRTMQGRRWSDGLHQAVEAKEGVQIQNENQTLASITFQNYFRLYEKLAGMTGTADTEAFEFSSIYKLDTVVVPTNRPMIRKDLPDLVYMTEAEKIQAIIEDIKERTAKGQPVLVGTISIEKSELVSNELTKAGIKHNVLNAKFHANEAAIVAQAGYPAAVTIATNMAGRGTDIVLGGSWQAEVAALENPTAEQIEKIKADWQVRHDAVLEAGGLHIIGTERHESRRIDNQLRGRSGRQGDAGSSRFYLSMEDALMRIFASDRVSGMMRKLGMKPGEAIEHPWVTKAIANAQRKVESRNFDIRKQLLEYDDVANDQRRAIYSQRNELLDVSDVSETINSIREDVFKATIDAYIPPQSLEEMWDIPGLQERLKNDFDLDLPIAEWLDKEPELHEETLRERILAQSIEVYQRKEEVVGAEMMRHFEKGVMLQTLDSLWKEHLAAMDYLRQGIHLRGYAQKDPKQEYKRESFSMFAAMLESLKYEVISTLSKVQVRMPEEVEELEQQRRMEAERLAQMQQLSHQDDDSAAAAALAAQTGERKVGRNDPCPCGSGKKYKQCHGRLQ
T1 sequence (P0AG99 whole entry, further chain): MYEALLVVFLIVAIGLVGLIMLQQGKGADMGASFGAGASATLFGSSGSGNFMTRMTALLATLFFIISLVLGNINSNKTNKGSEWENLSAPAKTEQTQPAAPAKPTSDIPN

Row | fold increase in SecA ATPase activity [1] | Molecule | stoichiometry N [2]
1 | ~ 4 fold | CCCCCCCC/C=C\CCCCCCCC(=O)O[C@H](COC(=O)CCCCCCCCCCCCCCC)COP(=O)(O)OCC(O)COP(=O)(O)OC[C@@H](COC(=O)CCCCCCCCCCCCCCC)OC(=O)CCCCCCC/C=C\CCCCCCCC (some centres unmarked) [CL, 1',3'-bis[1-palmitoyl-2-oleoyl-sn-glycero-3-phospho]-glycerol] | 
2 |  | His6-tagged MsbA (natural protein, UniProt P60752 1-582, looked up, The same protein was prepared with different amounts of endogenous lipid (DDC, DLW, DHW in peptidisc; DDM in detergent); also called DDC-MsbA; DLW-MsbA; source: E. coli BL21(DE3), membranes solubilized with DDM, purified (Ni-NTA), reconstituted in peptidiscs or kept in DDM) MHNDKDLSTWQTFRRLWPTIAPFKAGLIVAGVALILNAASDTFMLSLLKPLLDDGFGKTDRSVLVWMPLVVIGLMILRGITSYVSSYCISWVSGKVVMTMRRRLFGHMMGMPVSFFDKQSTGTLLSRITYDSEQVASSSSGALITVVREGASIIGLFIMMFYYSWQLSIILIVLAPIVSIAIRVVSKRFRNISKNMQNTMGQVTTSAEQMLKGHKEVLIFGGQEVETKRFDKVSNRMRLQGMKMVSASSISDPIIQLIASLALAFVLYAASFPSVMDSLTAGTITVVFSSMIALMRPLKSLTNVNAQFQRGMAACQTLFTILDSEQEKDEGKRVIERATGDVEFRNVTFTYPGRDVPALRNINLKIPAGKTVALVGRSGSGKSTIASLITRFYDIDEGEILMDGHDLREYTLASLRNQVALVSQNVHLFNDTVANNIAYARTEQYSREQIEEAARMAYAMDFINKMDNGLDTVIGENGVLLSGGQRQRIAIARALLRDSPILILDEATSALDTESERAIQAALDELQKNRTSLVIAHRLSTIEKADEIVVVEDGVIVERGTHNDLLEHRGVYAQLHKMQFGQ | 2
